Test results published in US10369123B2, “Perk activator for the treatment of neurodegenerative diseases” (DEUTSCHES ZENTRUM FÜR NEURODEGENERATIVE ERKRANKUNGEN E.V. …, priority 2014, dated 2019).
Entries after “also recorded” stand apart in the source; their conditions may differ.

Legend:
Format in all cases: cell-based, human
[1] = tested on: LUHMES neurons overexpressing 4R-tau; experiment: MTT assay, LUHMES neurons overexpressing 4R-tau; settings: lentiviral 4R-tau overexpression 10 days, co-administration of PERK modulator
Protocol: Nunc™ Nunclon™ Delta 6-well (for protein and mRNA) or 48-well (for cell assays) plates (Thermo Fisher Scientific, Waltham, Mass., USA) were coated with 100 μg/ml poly-L-lysine (Sigma-Aldrich, St. Louis, Mo., USA) and 5 μg/ml fibronectin (Sigma-Aldrich). LUHMES (Lund Human Mesencephalic) cells, derived from human embryonic ventral mesencephalic cells by conditional immortalization (Tet-off v-myc over-expression) were seeded out in a concentration of 130,000 cells/cm^2 to achieve a confluence of 50%. […]
Concentrated lentiviral particles were titrated by transducing LUHMES cells with different dilutions at 6 hours after initiating differentiation. The lowest dilution at which at least 90% of cells expressed the transgene (as determined by immunohistochemistry of the cells fixed on day 2 post differentiation) was chosen for subsequent experiments. […]
Thiazolyl Blue Tetrazolium […] (Sigma Aldrich) was dissolved in sterile PBS to a concentration of 5 mg/ml. […] 100 μl from each well were transferred to a new 96-well plate and the absorbance was read with the FLUOstar Omega (BMG Labtech) platereader at a wavelength of 590 nm (reference wave length 630 nm). The data was analyzed using the MARS Data Analysis Software (BMG Labtech) and Prism 6.

[2] = tested on: tau; experiment: Western blot of tau conformation and phosphorylation, annonacin model; settings: annonacin 25 nM + PERK activator, 48 h
Protocol: (§1) Nunc™ Nunclon™ Delta 6-well (for protein and mRNA) or 48-well (for cell assays) plates (Thermo Fisher Scientific, Waltham, Mass., USA) were coated with 100 μg/ml poly-L-lysine (Sigma-Aldrich, St. Louis, Mo., USA) and 5 μg/ml fibronectin (Sigma-Aldrich). LUHMES (Lund Human Mesencephalic) cells, derived from human embryonic ventral mesencephalic cells by conditional immortalization (Tet-off v-myc over-expression) were seeded out in a concentration of 130,000 cells/cm^2 to achieve a confluence of 50%. They were then differentiated for 8 days in a medium of DMEM/F12 (Sigma-Aldrich), 1 μg/ml tetracycline, […] and 490 μg/ml dbcAMP into post-mitotic neurons with a dopaminergic phenotype (Lotharius et al. 2005).
(§2) For all experiments with annonacin, the medium was replaced during the intoxication period with new medium containing glucose levels reduced to 250 μM, i.e. the physiological concentration in the human brain.
Protein was extracted by scraping the cells from the culture plate with Mammalian Protein Extraction Reagent (M-PER, Thermo Fisher Scientific) and 1× cOmplete Protease Inhibitor Cocktail Tablets (Hoffmann-La Roche, Basel, Switzerland) and 1× PhosSTOP Phosphatase Inhibitor Cocktail Tablets (Hoffmann-La Roche). For pNRF2 blots, cells were extracted with 2% SDS tris-buffer instead of M-PER in order to obtain whole cell extracts and not to lose the nuclear fraction. The protein solution was frozen at −80° C., immediately after retrieval, for a minimum of two hours. The solution was then thawed on ice, vortexed, centrifuged at 5000 g for 15 min at 4° C. and the supernatant retrieved. Protein concentrations were determined using the BCA kit (Thermo Fisher Scientific) by heating the samples at 60° C. for 30 min and measuring the absorption on the NanoDrop 2000c Spectrophotometer (Thermo Fisher Scientific).
20 μg of protein (unless indicated otherwise) were adjusted to equal concentrations between samples by dilution with M-PER and subsequently heated at 95° C. for 5 minutes with Roti®-Load 1 (Carl Roth). SDS-PAGE was performed using Any kD™ Mini-PROTEAN® TGX™ Gels (BioRad, Berkeley, Calif., USA) in a tris-glycine running buffer. The protein was blotted onto PVDF membrane (BioRad) at 70 V for 65 minutes on ice. The membrane was blocked with 1× Roti®-Block solution (Carl Roth) for 1 h and then incubated at 4° C. overnight under gentle shaking with the primary antibody (see Table 5) in TBS with 5% BSA (Cell Signaling Technology) and 0.05% TWEEN (Sigma-Aldrich).
The membranes were then washed and incubated with the species specific HRP-bound secondary antibody (Vector Laboratories, Burlingame, Calif., USA) at 1:2500 in 1× Roti®-Block solution for 2 h, followed by further washing and exposure to Clarity Western ECL Substrate (BioRad) or, in the case of MC1 and 4R-tau, to Amersham™ ECL™ Prime (GE Healthcare). Chemiluminescence was detected with the Gel Doc™ XR System (BioRad) and analyzed with Image Lab™ software (BioRad), followed by graphical and statistical analysis with Prism 6 (GraphPad Software).

[3] = tested on: 3R/4R MAPT mRNA, splicing factor SRSF2; experiment: Quantitative PCR of MAPT isoforms and splicing factors, annonacin model; settings: annonacin + PERK activator
Protocol: as §1, §2
RNA from human tissue samples was extracted by grinding the tissue in liquid nitrogen to a powder and then dissolving it in the RA1 buffer supplied as part of the NucleoSpin® RNA (Macherey Nagel) RNA extraction kit+1% (v/v) 2-mercaptoethanol (Sigma-Aldrich). RNA from cells was extracted by scraping the cells from the culture plate with RA1 buffer+1% (v/v) 2-mercaptoethanol. The remaining extraction procedure was according to the manufacturer's instructions for the NucleoSpin® RNA kit. RNA concentrations were determined using the NanoDrop 2000c Spectrophotometer. The RNA was then transcribed into cDNA with the iScript™ cDNA Synthesis Kit (BioRad) using the manufacturer's instructions. Real-Time PCR was performed on the Applied Biosystems® StepOnePlus™ (Life Technologies) system using TagMan® Universal Master Mix II and TaqMan® primers against total MAPT, MAPT 3R, MAPT 4R, EIF2A, EI2AK3 and ATF4. POL2A and PSCM1 served as reference targets as they were determined to be the most stably expressed across experimental conditions. The results were analyzed using the StepOne Plus software (Life Technologies) and Qbase software (Biogazelle) and were then graphically and statistically analyzed with Prism 6 (GraphPad Software). Absolute quantification was performed by creating a standard curve with plasmids containing either the 2N3R or the 2N4R spliced variant of MAPT (see Table 2). The absolute quantity was computed by deriving the relationship between CT values and absolute quantity with the StepOne Plus software.

## CCN(CC)CCC(=O)N1N=C(c2c(-c3ccccc3)c3cc(Br)ccc3[nH]c2=O)CC1c1ccc(Br)cc1 (stereo not shown) [CCT020312, 6-bromo-3-[5-(4-bromo-phenyl)-1-(3-diethylamino-propionyl)-4,5-dihydro-1H-pyrazol-3-yl]-4-phenyl-1H-quinolin-2-one]
[1]
  4R-specific toxicity in MTT assay: reduced significantly
[2]
  total tau protein (HT7): not altered
[2]; vs annonacin alone
  AD2 (p-Ser-396 and 404) tau phosphorylation: significantly reduced
  CP13 (p-Ser-202) tau phosphorylation: significantly reduced
  MC1 pathological tau conformation: reversed; also recorded: averted
[3]
  annonacin-induced increase of splicing factor SRSF2: significantly reduced
[3]; 48 h
  4R-tau mRNA amount: reduced
